Where two headings read alike, the source gives them in different places.
Columns and labels:
[1] = test system: Respiratory Syncytial Virus (RSV) long strain; test: microbe, parasite or virus in culture; type: cell-based; conditions: human respiratory syncytial virus, Tables A and B list compounds by EC50 band
In short: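 CPE-reduction format: viability measured colorimetrically with CCK-8 (450 nm, 630 nm reference) after 3-4 h, following 5-day infection at 37 °C, 5% CO2. Cells were HEp-2; inoculum 100 TCID50/well; duplicate 9-point 1/3 series starting at 100 μM or 1 μM.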

[2] = molecular target: recombinant RSV complex (Human respiratory syncytial virus A, UniProt P28887); test: RSV Polymerase Inhibition Assay; type: biochemical
Chain of recombinant RSV complex (P28887 whole entry): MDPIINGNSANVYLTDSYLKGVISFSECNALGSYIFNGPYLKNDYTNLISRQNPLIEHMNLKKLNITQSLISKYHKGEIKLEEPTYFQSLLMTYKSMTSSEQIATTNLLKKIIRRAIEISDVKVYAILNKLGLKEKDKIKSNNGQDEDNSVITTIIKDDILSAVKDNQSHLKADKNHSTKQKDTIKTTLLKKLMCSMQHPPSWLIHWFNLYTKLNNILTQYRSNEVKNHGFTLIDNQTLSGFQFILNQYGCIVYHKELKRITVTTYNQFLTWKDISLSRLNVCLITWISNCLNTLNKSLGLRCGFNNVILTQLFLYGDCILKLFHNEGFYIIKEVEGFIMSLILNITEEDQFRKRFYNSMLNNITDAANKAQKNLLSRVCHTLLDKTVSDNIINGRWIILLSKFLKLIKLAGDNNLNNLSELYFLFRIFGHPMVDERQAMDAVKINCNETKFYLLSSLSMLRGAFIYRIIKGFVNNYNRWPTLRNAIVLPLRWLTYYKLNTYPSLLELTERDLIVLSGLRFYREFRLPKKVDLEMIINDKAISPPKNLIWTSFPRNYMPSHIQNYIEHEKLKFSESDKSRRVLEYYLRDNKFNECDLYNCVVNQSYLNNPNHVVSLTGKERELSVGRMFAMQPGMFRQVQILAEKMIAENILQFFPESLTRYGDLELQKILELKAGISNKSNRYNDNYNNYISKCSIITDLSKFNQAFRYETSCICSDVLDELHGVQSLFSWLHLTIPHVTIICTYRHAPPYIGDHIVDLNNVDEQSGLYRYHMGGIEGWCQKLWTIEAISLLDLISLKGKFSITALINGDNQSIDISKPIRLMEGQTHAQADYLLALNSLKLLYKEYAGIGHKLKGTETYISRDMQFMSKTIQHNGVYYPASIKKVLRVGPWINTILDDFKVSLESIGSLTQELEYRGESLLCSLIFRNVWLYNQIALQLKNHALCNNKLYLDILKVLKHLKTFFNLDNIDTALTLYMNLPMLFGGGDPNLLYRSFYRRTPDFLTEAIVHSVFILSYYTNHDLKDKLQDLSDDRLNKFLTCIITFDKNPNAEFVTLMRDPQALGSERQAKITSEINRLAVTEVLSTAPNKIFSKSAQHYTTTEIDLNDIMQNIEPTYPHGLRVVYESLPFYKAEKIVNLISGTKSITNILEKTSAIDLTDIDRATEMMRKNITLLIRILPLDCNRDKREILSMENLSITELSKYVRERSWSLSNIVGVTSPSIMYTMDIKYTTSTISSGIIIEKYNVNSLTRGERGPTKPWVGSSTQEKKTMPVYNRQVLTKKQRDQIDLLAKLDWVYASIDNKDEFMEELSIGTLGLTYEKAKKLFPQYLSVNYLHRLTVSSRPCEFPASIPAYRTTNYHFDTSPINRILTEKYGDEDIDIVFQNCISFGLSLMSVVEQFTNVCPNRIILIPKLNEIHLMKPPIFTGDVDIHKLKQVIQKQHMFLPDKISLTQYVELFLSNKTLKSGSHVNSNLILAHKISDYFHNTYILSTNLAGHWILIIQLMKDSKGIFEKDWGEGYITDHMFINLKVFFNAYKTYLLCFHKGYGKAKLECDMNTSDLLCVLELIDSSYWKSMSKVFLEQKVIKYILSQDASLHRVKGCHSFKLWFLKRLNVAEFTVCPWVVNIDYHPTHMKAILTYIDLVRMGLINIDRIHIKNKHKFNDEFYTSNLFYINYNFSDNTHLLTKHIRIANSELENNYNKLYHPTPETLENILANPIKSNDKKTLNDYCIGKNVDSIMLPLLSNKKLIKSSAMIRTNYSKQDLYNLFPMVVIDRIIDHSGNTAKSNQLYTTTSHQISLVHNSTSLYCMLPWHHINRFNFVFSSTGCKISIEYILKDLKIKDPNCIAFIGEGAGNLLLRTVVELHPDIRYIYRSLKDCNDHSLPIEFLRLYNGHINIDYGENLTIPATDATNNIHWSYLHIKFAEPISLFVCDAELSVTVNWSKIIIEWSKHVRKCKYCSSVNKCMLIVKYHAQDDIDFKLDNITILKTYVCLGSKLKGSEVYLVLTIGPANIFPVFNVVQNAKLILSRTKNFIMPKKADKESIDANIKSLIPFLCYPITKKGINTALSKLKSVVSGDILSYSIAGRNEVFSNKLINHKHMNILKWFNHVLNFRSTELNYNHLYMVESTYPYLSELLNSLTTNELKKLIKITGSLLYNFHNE
Chain of recombinant RSV complex (P03421 whole entry, further chain): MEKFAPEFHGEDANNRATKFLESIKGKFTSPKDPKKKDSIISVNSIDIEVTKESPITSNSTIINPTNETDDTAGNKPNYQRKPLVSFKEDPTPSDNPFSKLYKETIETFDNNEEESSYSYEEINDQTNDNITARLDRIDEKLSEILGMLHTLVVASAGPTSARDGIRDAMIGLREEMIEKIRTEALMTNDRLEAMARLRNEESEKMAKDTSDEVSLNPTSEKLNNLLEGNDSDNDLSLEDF
In short: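 Inhibition measured as reduced incorporation of radiolabel into RNA products, detected by scintillation counting. Reactions: recombinant RSV complex (10 nM), RNA oligonucleotides, Tris-HCl pH 7.5, 6 mM MgCl2, inhibitor titration, 2 h at 30 °C, EDTA stop.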

[3] = Cytotoxicity Determination (CCK-8, without addition of virus); type: cell-based; conditions: human, 50% cytotoxicity concentration (CC50)
In short: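 Cytotoxicity was measured by CCK-8 after 3-4 hours at 37 °C, following 5 days of uninfected exposure at 37 °C and 5% CO2. Compounds ran as duplicate 7-point 1/2 dilutions starting at 100 μM, with 1% final DMSO. HEp-2 cells had been plated at 1,500/well the day before.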

[4] = test system: RSV replicon; test: microbe, parasite or virus in culture; type: cell-based; conditions: human respiratory syncytial virus, read-out: EC50, the concentration of the drug required for reducing RSV replicon RNA by 50%
[5] = HEp-2, 120 h, read-out: 50% effective concentration (EC50), HEp-2 cells infected with RSV long strain, 5 days, CCK-8 readout
[6] = 120 h, read-out: 50% effective concentration (EC50), HEp-2 cells infected with RSV long strain, 5 days, CCK-8 readout

| Compound | EC50 [1, 5] | IC50 [2] | CC50 at 5 days [3] | EC50 [4] | EC50 [1, 6] | IC50 ([2]; read-out: IC50 (compound concentration at which the enzyme-catalyzed rate was reduced by 50%), 10 nM recombinant RSV complex, 2 h at 30° C., Tables E, F and G list compounds by IC50 band) |
| --- | --- | --- | --- | --- | --- | --- |
| COc1cc(C(=O)NC[C@@](O)(c2cc(C(C)(C)N)cc(-c3ccc(F)cc3)n2)C(F)(F)F)ccc1OC[C@@H](C)O [Compound 545] | < 1000 nM | < 1000 nM | 10000 to 100000 nM | < 1000 nM | – | – |
| COc1cc(C(=O)NCC(O)(c2cc(CN)cc(-c3ccc(F)cc3)n2)C(F)(F)F)ccc1OC1CC1 (stereo not shown) [Compound 361] | < 1000 nM | < 1000 nM | 10000 to 100000 nM | < 1000 nM | – | – |
| CCC(O)(CNC(=O)c1ccc(OCCF)c(OC)c1)c1ccc(OC)c(-c2ccc(F)c(Cl)c2)n1 (single isomer, unassigned) [Compound 122a] | < 1000 nM | < 1000 nM | 10000 to 100000 nM | < 1000 nM | – | – |
| COc1cc(C(=O)NCC(O)(c2ccc(OC)c(-c3ccc(F)c(Cl)c3)n2)C(F)(F)F)ccc1OC1CC1(F)F (stereo not shown) [Compound 358] | < 1000 nM | < 1000 nM | > 100000 nM | < 1000 nM | – | – |
| COc1cc(C(=O)NCC(C)(O)c2cc(C(C)(C)C)cc(-c3ccc(F)c(Cl)c3)n2)ccc1OCCO (stereo not shown) [Compound 467] | < 1000 nM | < 1000 nM | 10000 to 100000 nM | < 1000 nM | – | – |
| COc1cc(C(=O)NCC(O)(c2cc(C(C)(C)NC(C)=O)cc(-c3ccc(F)cc3)n2)C(F)(F)F)ccc1OCC(N)=O (stereo not shown) [Compound 621] | < 1000 nM | < 1000 nM | > 100000 nM | < 1000 nM | – | – |
| COc1cc(C(=O)NCC(O)(c2ccc(OC)c(-c3ccc(F)c(Cl)c3)n2)C(F)F)ccc1OC1CC1 (stereo not shown) [Compound 445] | < 1000 nM | < 1000 nM | 10000 to 100000 nM | < 1000 nM | – | – |
| COc1cc(C(=O)NCC(O)(c2cc(C(C)(C)N)cc(-c3ccc(F)c(Cl)c3)n2)C(F)(F)F)ccc1OCC(N)=O (stereo not shown) [Compound 322] | < 1000 nM | < 1000 nM | 10000 to 100000 nM | < 1000 nM | – | – |
| COc1cc(C(=O)NCC(O)(c2cc3c(c(-c4ccc(F)c(Cl)c4)n2)OCC3(C)C)C(F)(F)F)ccc1OC1CCNC1=O (stereo not shown) [Compound 200] | – | < 1000 nM | 10000 to 100000 nM | < 1000 nM | < 1000 nM | – |
| CCOC(=O)NC(C)(C)c1cc(-c2ccc(F)c(Cl)c2)nc(C(O)(CNC(=O)c2ccc(OC3CC3)c(OC)c2)C(F)(F)F)c1 (stereo not shown) [Compound 331] | < 1000 nM | – | > 100000 nM | < 1000 nM | – | < 1000 nM |
| COc1ccc(C(=O)NCC(=O)c2nc(-c3csc4c(F)cccc34)c3ccccn23)cc1OC [Compound 130] | – | < 1000 nM | 10000 to 100000 nM | < 1000 nM | < 1000 nM | – |
| COc1cc(C(=O)NCC(O)(c2ccc(OC)c(-c3ccc(F)c(Br)c3)n2)C(F)(F)F)ccc1OCC(N)=O (stereo not shown) [Compound 443] | < 1000 nM | < 1000 nM | 10000 to 100000 nM | < 1000 nM | – | – |
| COc1cc(C(=O)NCC(O)(c2cc(C(C)(C)NCCF)cc(-c3ccc(F)c(Cl)c3)n2)C(F)(F)F)ccc1OC1CC1 (stereo not shown) [Compound 356] | < 1000 nM | < 1000 nM | 10000 to 100000 nM | < 1000 nM | – | – |
| COc1cc(C(=O)NCC(O)(c2cc3c(c(-c4ccc(F)c(Cl)c4)n2)OCC3)C2CC2)ccc1OCCO (stereo not shown) [Compound 310] | – | < 1000 nM | 10000 to 100000 nM | < 1000 nM | < 1000 nM | – |
| COc1ccc(C(O)(CNC(=O)c2ccc(OCCO)c(Cl)c2)C2CC2)nc1-c1ccc(F)c(Cl)c1 (stereo not shown) [Compound 425] | < 1000 nM | < 1000 nM | 10000 to 100000 nM | < 1000 nM | – | – |
| COc1cc(C(=O)NCC(O)(c2cc(C(C)(C)NC(N)=O)cc(-c3ccc(F)c(Cl)c3)n2)C(F)(F)F)ccc1OC1CC1 (stereo not shown) [Compound 516] | < 1000 nM | < 1000 nM | 10000 to 100000 nM | < 1000 nM | – | – |

| Compound | EC50 [1, 5] | IC50 [2] | CC50 at 5 days [3] | EC50 [4] | EC50 [1, 6] | IC50 ([2]; read-out: IC50 (compound concentration at which the enzyme-catalyzed rate was reduced by 50%), 10 nM recombinant RSV complex, 2 h at 30° C., Tables E, F and G list compounds by IC50 band) |
| --- | --- | --- | --- | --- | --- | --- |
| COc1ccc(C(O)(CNC(=O)c2ccc(OC[C@@H](C)O)c(Cl)c2)C(F)(F)F)nc1-c1ccc(F)c(Cl)c1 (stereo partly shown) [Compound 232] | < 1000 nM | < 1000 nM | 10000 to 100000 nM | < 1000 nM | – | – |
| COc1cc(C(=O)NCC(O)(c2cc3c(c(-c4ccc(Cl)cc4)n2)OCC3(C)N)C(F)(F)F)ccc1OCCO (stereo not shown) [Compound 640] | – | < 1000 nM | 10000 to 100000 nM | < 1000 nM | < 1000 nM | – |
| CCOc1ccc(C(=O)NCC(O)(c2cc(C(C)(C)N)cc(-c3ccc(F)c(Cl)c3)n2)C(F)(F)F)cc1OC (stereo not shown) [Compound 315] | < 1000 nM | < 1000 nM | 10000 to 100000 nM | < 1000 nM | – | – |
| COc1cc(C(=O)NC[C@](O)(c2cc(C(C)(C)N)cc(-c3ccc(F)cc3)n2)C(F)(F)F)ccc1OCCO [Compound 554] | < 1000 nM | < 1000 nM | 10000 to 100000 nM | < 1000 nM | – | – |
| COc1cc(C(=O)NCC(C)(O)c2ccc(OC)c(-c3ccc(F)c(Cl)c3)n2)ccc1OCCO (racemic) [Compound 120] | – | < 1000 nM | > 100000 nM | < 1000 nM | < 1000 nM | – |
| COc1cc(C(=O)NCC(C)(O)c2cccc(-c3csc4c(F)cccc34)n2)ccc1OCCO (stereo not shown) [Compound 143] | < 1000 nM | < 1000 nM | 10000 to 100000 nM | < 1000 nM | – | – |
| COc1cc(C(=O)NC[C@](O)(c2cc(C(C)(C)N)cc(-c3ccc(F)cc3)n2)C(F)(F)F)ccc1OCC(N)=O [Compound 562] | < 1000 nM | < 1000 nM | > 100000 nM | < 1000 nM | – | – |
| COc1cc(C(=O)NCC(O)(c2ccc(OC)c(-c3ccc(F)c(Cl)c3)n2)C(F)(F)F)ccc1OC1COC1 (stereo not shown) [Compound 250] | – | < 1000 nM | 10000 to 100000 nM | < 1000 nM | < 1000 nM | – |
| COc1cc(C(=O)NCC(F)(c2ccc(OC)c(-c3ccc(F)c(Cl)c3)n2)C(F)(F)F)ccc1OC[C@@H](C)O (stereo partly shown) [Compound 342] | < 1000 nM | < 1000 nM | 10000 to 100000 nM | < 1000 nM | – | – |
| COc1cc(C(=O)NCC(O)(c2ccc(OC)c(-c3ccc(F)c(Cl)c3)n2)C2CC2)ccc1Cn1ccnc1 (stereo not shown) [Compound 438] | 1000 to 50000 nM | < 10000 nM | 10000 to 100000 nM | 1000 to 50000 nM | – | – |
| CCc1ccc(C(C)(O)CNC(=O)c2ccc(OC)c(OC)c2)nc1-c1csc2c(F)cccc12 (stereo not shown) [Compound 115] | < 1000 nM | < 1000 nM | 10000 to 100000 nM | < 1000 nM | – | – |
| COc1cc(C(=O)NCC(O)(c2cc(C(C)(C)N)cc(-c3ccc(F)cc3)n2)C(F)(F)F)ccc1OC1CC1 (stereo not shown) [Compound 318] | < 1000 nM | < 1000 nM | 10000 to 100000 nM | < 1000 nM | – | – |
| CCC1(N)COc2c1cc(C(O)(CNC(=O)c1ccc(OC3CC3)c(OC)c1)C(F)(F)F)nc2-c1ccc(F)cc1 (stereo not shown) [Compound 531] | < 1000 nM | < 1000 nM | 10000 to 100000 nM | < 1000 nM | – | – |
| COc1cc(C(=O)NC[C@](O)(c2cc(C(C)(C)N)cc(-c3ccc(F)c(Cl)c3)n2)C(F)(F)F)ccc1OCC(N)=O [Compound 548] | < 1000 nM | < 1000 nM | 10000 to 100000 nM | < 1000 nM | – | – |
| COc1cc(C(=O)NCC(O)(c2cc(CNC(C)=O)cc(-c3ccc(F)c(Cl)c3)n2)C(F)(F)F)ccc1OC1CC1 (stereo not shown) [Compound 328] | < 1000 nM | < 1000 nM | 10000 to 100000 nM | < 1000 nM | – | – |

Source: patent US11021444B2, “Antiviral compounds” (priority 2013, dated 2021)
